Experiments:
[1] = molecular target: T1, TRPM7 (Mus musculus, UniProt Q923J1); test: PI uptake cell death assay in TRPM7-expressing HEK-293 cells (type of assay from Example 1); type: cell-based, murine; conditions: Table X
T1 construct: expressed in transfected cells; host or cells: HEK-293 tSA (HEK-293T) cells, transient transfection with Lipofectamine 2000

[2] = system: neurons, hepatocytes, cardiomyocytes, retina; test: Survival after anoxia in cells and tissues; type: cell-based; conditions: summary statement

T1 sequence (Q923J1 whole entry): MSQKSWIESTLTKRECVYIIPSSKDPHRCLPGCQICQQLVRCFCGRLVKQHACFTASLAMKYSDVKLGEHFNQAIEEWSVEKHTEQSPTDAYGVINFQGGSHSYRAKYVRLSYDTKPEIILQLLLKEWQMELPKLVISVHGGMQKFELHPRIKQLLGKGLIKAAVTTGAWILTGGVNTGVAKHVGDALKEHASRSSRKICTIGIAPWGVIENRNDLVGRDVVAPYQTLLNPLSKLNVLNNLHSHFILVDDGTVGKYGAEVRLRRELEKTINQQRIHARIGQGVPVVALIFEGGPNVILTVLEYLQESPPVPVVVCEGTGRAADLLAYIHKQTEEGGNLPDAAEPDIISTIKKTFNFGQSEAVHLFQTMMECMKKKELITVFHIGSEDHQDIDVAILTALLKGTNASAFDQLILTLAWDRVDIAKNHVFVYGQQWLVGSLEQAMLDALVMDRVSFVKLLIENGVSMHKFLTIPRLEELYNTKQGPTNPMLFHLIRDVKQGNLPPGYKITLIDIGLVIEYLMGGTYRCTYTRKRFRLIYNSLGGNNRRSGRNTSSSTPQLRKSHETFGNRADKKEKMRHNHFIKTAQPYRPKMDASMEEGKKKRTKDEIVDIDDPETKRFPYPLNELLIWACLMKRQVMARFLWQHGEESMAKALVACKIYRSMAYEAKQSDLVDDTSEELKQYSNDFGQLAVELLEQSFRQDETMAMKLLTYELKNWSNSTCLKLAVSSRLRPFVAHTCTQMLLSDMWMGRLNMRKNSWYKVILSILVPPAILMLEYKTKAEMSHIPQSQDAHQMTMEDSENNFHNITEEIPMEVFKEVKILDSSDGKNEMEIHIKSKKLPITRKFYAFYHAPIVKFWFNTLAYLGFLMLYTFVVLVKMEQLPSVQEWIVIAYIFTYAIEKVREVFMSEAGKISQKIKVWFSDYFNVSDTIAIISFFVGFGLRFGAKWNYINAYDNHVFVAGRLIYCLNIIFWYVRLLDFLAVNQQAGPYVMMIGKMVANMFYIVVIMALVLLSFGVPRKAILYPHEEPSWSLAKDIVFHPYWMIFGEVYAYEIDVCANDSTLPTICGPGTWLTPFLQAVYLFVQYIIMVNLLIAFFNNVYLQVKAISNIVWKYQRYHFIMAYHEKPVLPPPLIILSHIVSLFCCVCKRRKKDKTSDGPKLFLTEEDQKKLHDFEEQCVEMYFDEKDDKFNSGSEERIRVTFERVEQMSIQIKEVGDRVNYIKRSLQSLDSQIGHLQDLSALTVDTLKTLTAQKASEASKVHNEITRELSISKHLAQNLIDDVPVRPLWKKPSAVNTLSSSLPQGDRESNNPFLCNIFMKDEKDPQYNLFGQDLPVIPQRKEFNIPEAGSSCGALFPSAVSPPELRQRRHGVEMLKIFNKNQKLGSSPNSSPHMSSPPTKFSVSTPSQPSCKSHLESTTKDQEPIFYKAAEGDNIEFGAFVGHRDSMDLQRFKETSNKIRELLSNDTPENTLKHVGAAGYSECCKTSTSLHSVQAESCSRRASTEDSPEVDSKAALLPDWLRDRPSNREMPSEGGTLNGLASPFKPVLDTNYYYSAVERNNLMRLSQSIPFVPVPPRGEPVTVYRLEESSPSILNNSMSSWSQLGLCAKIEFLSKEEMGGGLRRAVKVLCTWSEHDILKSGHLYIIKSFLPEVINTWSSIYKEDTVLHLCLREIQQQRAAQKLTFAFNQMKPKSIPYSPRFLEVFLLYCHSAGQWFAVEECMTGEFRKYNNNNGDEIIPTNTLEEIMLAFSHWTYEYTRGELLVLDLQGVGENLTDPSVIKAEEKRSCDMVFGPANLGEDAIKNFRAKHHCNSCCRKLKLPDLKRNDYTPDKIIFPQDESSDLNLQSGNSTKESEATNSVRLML

Q: Which results are given for `Cc1c(Cc2ccc(Cl)c(Cl)c2)c(=O)oc2cc(O)ccc12` [Compound M21]?
A: IC50 [1]: 4.97 µM; survival after anoxia [2]: broadly effective in increasing survival after anoxia in various tissues

Reference: patent publication US9334256B2, “Agents and methods for treating ischemic and other diseases” (NoNO INC., priority 2011, dated 2016)
